Data reported in EP0699074B1, “THROMBIN INHIBITORS” (Merck & Co., Inc., priority 1993, dated 1994).

Target: human α-thrombin (Homo sapiens, UniProt P00734)
Conditions: 4-4 (L at Acg center, later eluting HPLC peak) compared with its diastereomer 4-3 (D)
Protocol: Trypsin assays also contained 1 mM CaCl2.
Concentrations of stock solutions of Z-GPR-afc were determined from measurements of absorbance at 380 nm of the 7-amino-4-trifluoromethyl coumarin produced upon complete hydrolysis of an aliquot of the stock solution by thrombin.
Times required to achieve equilibration between enzyme and inhibitor were determined in control experiments. Initial velocities of product formation in the absence (Vo) or presence of inhibitor (Vi) were measured.

thrombin inhibitor potency (comparison of the two isomers): more potent thrombin inhibitor
Structure (SMILES): CNC(=O)C(=O)[C@@H](NC(=O)[C@@H]1CCCN1C(=O)[C@@H](Cc1ccccc1)NC)[C@H]1CC[C@H](N)CC1 [4-4, H-NMe-D-Phe-Pro-t-L-AcgΨ[COCO]-NHMe]
